Results published in PMC8815882, “Screening the pandemic response box identified benzimidazole carbamates, Olorofim and ravuconazole as promising drug candidates for the treatment of eumycetoma” (PLoS Neglected Tropical Diseases, 2022).
Like-named read-outs stand apart in the source and are kept apart here.

Tested on: M. mycetomatis genome strain MM55
Assay: CLSI M38-A2 based in vitro susceptibility screening (XTT or resazurin), growth at fixed concentration
Format: cell-based, Madurella mycetomatis
Settings: Madurella mycetomatis; for Percent fungal survival at 100 µM: read-out: Percentage survival at 100um, 100 uM A (second replicate column)
[1] = replicate A, read-out: Percentage survival at 25um, 25 um A
[2] = replicate B, read-out: Percentage survival at 25um, 25 uM B
[3] = replicate C, read-out: Percentage survival at 25um, 25 uM C
[4] = mean of replicates, read-out: Percentage survival at 25um, 25 uM mean
[5] = mean of replicates, read-out: Percentage survival at 100um, 100 uM mean
[6] = replicate 1, read-out: Percentage survival at 100um, 100 uM A
[7] = replicate 2, read-out: Percentage survival at 100um, 100 uM A
[8] = replicate 3, read-out: Percentage survival at 100um, 100 uM A
[9] = mean of three replicates, read-out: Percentage survival at 25um, 25 uM mean
[10] = mean of three replicates, read-out: Percentage survival at 100um, 100 uM mean
[11] = replicate 1, read-out: Percentage survival at 100um, 100 uM A (first replicate column)
[12] = replicate 3, read-out: Percentage survival at 100um, 100 uM A (third replicate column)

SMILES	activity at 25 µM [1] [%]	activity at 25 µM [2] [%]	activity at 25 µM [3] [%]	activity at 25 µM [4] [%]	activity at 100 µM [5] [%]	activity at 100 µM [6] [%]	activity at 100 µM [7] [%]	activity at 100 µM [8] [%]	further results
COc1ccc2c(c1)cc(CNC(=O)c1cc3ccccc3o1)n2CC(=O)O [MMV1581553]	87.4	70.5	72.3	–	–	–	–	–	activity at 25 µM (mean, read-out: Percentage survival at 25um, 25 uM mean): 76.7%; activity at 100 µM (mean, read-out: Percentage survival at 100um, 100 uM mean): 88.6%; activity at 100 µM (replicate (first column), read-out: Percentage survival at 100um, 100 uM A): 90%; activity at 100 µM (replicate (second column), read-out: Percentage survival at 100um, 100 uM A): 85%; activity at 100 µM (replicate (third column), read-out: Percentage survival at 100um, 100 uM A): 90.9%
Nc1cc(N)c2nc(-c3ccccc3)c(Nc3ccc(F)cc3)nc2c1 [MMV1581554]	–	–	–	–	–	–	–	–	activity at 25 µM (mean of three, M. mycetomatis MM55, read-out: Percentage survival at 25um, 25 uM mean): 92.5%; activity at 25 µM (replicate A, M. mycetomatis MM55, read-out: Percentage survival at 25um, 25 um A): 97.1%; activity at 25 µM (replicate B, M. mycetomatis MM55, read-out: Percentage survival at 25um, 25 uM B): 91.3%; activity at 25 µM (replicate C, M. mycetomatis MM55, read-out: Percentage survival at 25um, 25 uM C): 89.3%; activity at 100 µM (mean of three, M. mycetomatis MM55, read-out: Percentage survival at 100um, 100 uM mean): 89.9%; activity at 100 µM (replicate 1, M. mycetomatis MM55, read-out: Percentage survival at 100um, 100 uM A (first replicate column)): 116%; Percent fungal survival at 100 µM (replicate 2, M. mycetomatis MM55): 80.3%; activity at 100 µM (replicate 3, M. mycetomatis MM55, read-out: Percentage survival at 100um, 100 uM A (third replicate column)): 73.1%
Nc1cccc(-c2nc(N)nc(NC3Cc4ccccc4C3)n2)c1 [MMV1581555]	98.9	85.3	73.8	86	85.5	81.1	89	86.6	–
NC(=O)c1[nH]c2ccc(S(N)(=O)=O)cc2c1-c1ccccc1 [MMV1581556]	70.3	68.8	78.1	–	–	–	–	–	activity at 25 µM [9]: 72.4%; activity at 100 µM [10]: 70.1%; activity at 100 µM [11]: 77.5%; Percent fungal survival at 100 µM (replicate 2): 68%; activity at 100 µM [12]: 64.9%
O=C(N[C@H](CCS)C(=O)N[C@H](Cc1ccccc1)C(=O)O)c1cc2ccccc2[nH]1 [MMV1581557]	88.1	98.1	70	85.4	83.1	82.1	85.3	81.8	–
Cc1cccc(C)c1C(=O)Nc1nc(-c2ccccn2)cc2ccccc12 [MMV1581558]	65	114	52.4	–	–	–	–	–	activity at 25 µM [9]: 77.1%; activity at 100 µM [10]: 86%; activity at 100 µM [11]: 76.1%; Percent fungal survival at 100 µM (replicate 2): 64.3%; activity at 100 µM [12]: 118%
CC(C)Cn1c(=O)n(C)c(=O)c2c(-c3cncn3C)n(Cc3cccc4ccccc34)nc21 [MMV1581559]	82.8	69.9	22.7	–	–	–	–	–	activity at 25 µM [9]: 58.5%; activity at 100 µM [10]: 3.57%; activity at 100 µM [11]: 1.05%; Percent fungal survival at 100 µM (replicate 2): 5.73%; activity at 100 µM [12]: 3.94%
CC(=N)N1CC[C@H](SC2=C(C(=O)O)N3C(=O)[C@@H]([C@@H](C)O)[C@H]3C2)C1 [MMV1582382]	77.3	85.2	72.8	78.4	83.2	76.4	82.9	90.3	–
CCCCCCCCC(CP(=O)(O)C(C)N)C(=O)O (stereo not shown) [MMV1582487]	90.3	86.2	76.2	84.2	95.3	85.8	103	97.5	–
Nc1nc(-c2ccccc2)nc2c1ncn2[C@@H]1O[C@H](COS(=O)(=O)NC(=O)c2ccccc2O)[C@@H](O)[C@H]1O [MMV1582488]	74.7	83.6	75.7	78	72.1	75.9	69.3	71.1	–
Cc1c[nH]c(=O)nc1NCc1ccccc1 [MMV1582489]	97.9	91.7	90.3	93.3	88.7	101	80.8	84.5	–
